According to patent US12780800B1, “Triazole-pyridinyl substituted azacyclohexyl acetic acid compounds as LPA receptor antagonists” (Viva Star Biosciences Limited, priority 2021, dated 2022):

Biological target: T1, LPA1 (Homo sapiens, UniProt Q92633)
T1 construct: ProLink (PK) beta-galactosidase enzyme-fragment tag; host or cells: CHO-K1
Assay: LPA1 calcium flux assay (LPA1 functional antagonist assay)
Type: cell-based
Conditions: PathHunter CHO-K1 EDG2 β-Arrestin cell line; calcium indicator dye; stimulated with EC80 concentration of LPA; FLIPR Tetra
Summary of the method: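 The LPA1 antagonist readout was intracellular calcium flux, and IC50 values were calculated from it. Plates stood 30 min at RT after compound addition. Cells, grown overnight, had first taken up calcium dye over 45 min at 37 °C.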

T1 sequence (Q92633 whole entry, the tested form may be a part): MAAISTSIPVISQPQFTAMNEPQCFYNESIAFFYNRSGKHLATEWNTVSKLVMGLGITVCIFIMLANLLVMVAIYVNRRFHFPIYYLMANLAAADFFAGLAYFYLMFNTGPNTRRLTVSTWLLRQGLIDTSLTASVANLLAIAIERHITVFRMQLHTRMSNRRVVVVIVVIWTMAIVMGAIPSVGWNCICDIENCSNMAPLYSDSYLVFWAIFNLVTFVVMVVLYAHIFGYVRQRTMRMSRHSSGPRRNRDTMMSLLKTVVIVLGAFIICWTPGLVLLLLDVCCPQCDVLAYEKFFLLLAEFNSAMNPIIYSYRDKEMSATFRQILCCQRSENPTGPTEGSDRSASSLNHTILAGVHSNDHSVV

IC50	Compound
500 to 5000 nM	CCCN(C)C(=O)OCc1c(-c2ccc(N3CCOC(CC(=O)O)C3)c(CC)n2)nnn1C (stereo not drawn) [Example 170, 2-(4-(2-ethyl-6-(1-methyl-5-(((methyl(propyl)carbamoyl)oxy)methyl)-1H-1,2,3-triazol-4-yl)pyridin-3-yl)morpholin-2-yl)acetic acid]
< 100 nM	CCc1nc(-c2nnn(C)c2COc2nccc(C3CCC3)n2)ccc1N1CCOC(CC(=O)O)C1 (stereo not drawn) [Example 171, 2-(4-(6-(5-(((4-cyclobutylpyrimidin-2-yl)oxy)methyl)-1-methyl-1H-1,2,3-triazol-4-yl)-2-ethylpyridin-3-yl)morpholin-2-yl)acetic acid]
500 to 5000 nM	CCCc1ccc(=O)n(Cc2c(-c3ccc(N4CCO[C@H](CC(=O)O)C4)c(CC)n3)nnn2C)c1 [Example 172, 2-[(2R)-4-(2-ethyl-6-{1-methyl-5-[(2-oxo-5-propyl-1,2-dihydropyridin-1-yl)methyl]-1H-1,2,3-triazol-4-yl}pyridin-3-yl)morpholin-2-yl]acetic acid]
